From patent publication US20150105324A1, “COMPOSITIONS AND METHODS FOR TREATING PTSD AND RELATED DISEASES” (INDIANA UNIVERSITY RESEARCH AND TECHNOLOGY CORPORATION, priority 2012, published 2015)

Tests used:
[1] = tested on: rats (conditioned fear, percent time freezing); test: Conditioned Fear Test; assay type: in vivo, rat; conditions: for acquisition of conditioned fear / fear extinction: compared to respective vehicle groups; for fear extinction: post conditioning treatment; for percent time freezing on test day 1 / percent time freezing during acquisition / percent time freezing during recall: rats; for percent time freezing on test day 1: after fear conditioning, FIGS. 1 and 2; for percent time freezing on test day 1 / percent time freezing during acquisition: vs vehicle; for percent time freezing during acquisition: acquisition of fear conditioning; for percent time freezing during recall: recall on day 3; for conditioned fear response 24 hours later (day 3 fear recall): treatment 5-60 min following the day 2 conditioning session
Protocol: Conditioned Fear Test. The conditioning chamber (Hamilton-Kinder, Paolo Alto, Calif.) is equipped to present light and tone cues along with a video camera set up to record behavior. The entire chamber is enclosed in a sound attenuated box. The animals went through 5 days of experimentation: Day 1 Habituation; Day 2 Conditioning; Day 3 Fear recall testing; Day 4 Extinction Training; and Day 5 Extinction Recall Test. Day 1 Habituation: Rats are exposed to the chambers for 10 min. Day 2 Conditioning: Rats are given five presentations of the tone CS (4 kHz, 80 dB, 20 sec) each co-terminating with a 0.8 mA foot shock lasting 0.5-s (US). The first CS-US pairing is presented 120 s into the session and the inter-trial interval (ITI) between CS-US presentations is 105 s on average (range 90-120). Conditioning sessions last about 11 minutes. Day 3 Fear recall tests: Twenty-four hours following the acquisition training, rats are given five 20-s CS presentations in the absence of the US. The first tone is presented 120 s into the session and the inter-trial interval (ITI) between CS-US presentations is 105 s on average (range 90-120). Percent time spent freezing is measured during each tone as an indication of fear recall. Recall test sessions last about 11 minutes. Extinction Training: Rats are exposed to 20 presentations of the CS in the absence of the US (mean ITI 180 s, range 120 to 240 s). Extinction Recall Test: 10 presentations of the CS only (mean ITI 180 s, range 120 to 240 s) are given 24 hrs after extinction.

[2] = tested on: cGMP production induced by a NO donor; conditions: (Florio 2009); cited from earlier work
[3] = tested on: rats; test: Open Field Test of Anxiety; assay type: in vivo, rat; conditions: i.p. 60 min prior to 5 min test; IC87201 4 mg/kg, ZL006 10 mg/kg; vs vehicle
Protocol: (§1) Open Field Test of Anxiety. Adult male rats are evaluated in a conventional open field test. Compounds described herein are evaluated compared to vehicle controls. Animals are observed for duration of time spent in regions of the open field (inner region versus outer region) and line crossings during a […] period following a systemic injection of vehicle or a test compound.
(§2) Results. Animals are systemically pre-treated by i.p. injections with two different agents that are known to disrupt the nNOS-PSD95 interaction, IC87201 (4 mg/kg) and ZL006 (10 mg/kg), 60 min prior to a 5 min open field test immediately followed by a 5 min social interaction test. […] (Inner time F(2,17)=0.4, p=0.678; Outer time F(2,17)=0.4, p=0.678; Line crossings F(2,17)=1.0, p=0.405; n=6/group).

[4] = tested on: cortical neurons stimulated with glutamate and glycine; test: Cell viability (LDH release) assay, glutamate/glycine exposed neurons; assay type: cell-based; conditions: FIG. 7; for glutamate receptor induced cell death: primary neuronal slices
Protocol: Cell viability assays. An LDH release assay was used for the measurement of cell viability. Cortical neurons were stimulated with glutamate and glycine in Mg^2+-free Locke's buffer. The neurons were washed with the buffer and incubated in cell-culture media for 12 h. Subsequently, LDH in the cell-culture media and total LDH after cell lysis were measured according to the manufacturer's instructions. LDH release was defined as ratio of LDH in the media to total LDH and normalized to the fold of control.

[5] = tested on: rats; test: Social Interaction test; assay type: in vivo, rat; conditions: i.p. 60 min prior; IC87201 4 mg/kg, ZL006 10 mg/kg; vs vehicle
Protocol: as §1, with “Social Interaction.” for “Open Field Test of Anxiety.”, “social interaction assay.” for “open field test.”, “of” for “of the”, “field test” for “field”
as §2

[6] = tested on: rats (conditioned fear, percent time freezing); test: Conditioned Fear Test; assay type: in vivo, rat; conditions: extinction on day 2, vs vehicle
[7] = tested on: NMDA-induced increase of cGMP in primary cultured hippocampal neurons; test: NMDA-induced increase in cGMP in primary rat hippocampal neurons; assay type: cell-based
Protocol: (§3) NMDA-induced increase in cGMP in primary rat hippocampal neurons Neonatal rat hippocampal cultures were prepared according to Brewer (1997). Cells were cultured for 14-21 days before testing. NMDA ([…]) increased cGMP (measured by a cGMP-RIA kit from Perkin-Elmer) within 2-15 min of addition. The NMDA receptor antagonist, MK-801, and a NOS catalytic inhibitor, L-NAME, were used as positive controls.
as §3, with “neurons.” for “neurons”

[8] = molecular target: PSD95-cypin protein-protein interaction (Homo sapiens, UniProt P78352); conditions: plate binding assay (Florio 2009); cited from earlier work
PSD95-cypin protein-protein interaction, sequence (P78352 whole entry): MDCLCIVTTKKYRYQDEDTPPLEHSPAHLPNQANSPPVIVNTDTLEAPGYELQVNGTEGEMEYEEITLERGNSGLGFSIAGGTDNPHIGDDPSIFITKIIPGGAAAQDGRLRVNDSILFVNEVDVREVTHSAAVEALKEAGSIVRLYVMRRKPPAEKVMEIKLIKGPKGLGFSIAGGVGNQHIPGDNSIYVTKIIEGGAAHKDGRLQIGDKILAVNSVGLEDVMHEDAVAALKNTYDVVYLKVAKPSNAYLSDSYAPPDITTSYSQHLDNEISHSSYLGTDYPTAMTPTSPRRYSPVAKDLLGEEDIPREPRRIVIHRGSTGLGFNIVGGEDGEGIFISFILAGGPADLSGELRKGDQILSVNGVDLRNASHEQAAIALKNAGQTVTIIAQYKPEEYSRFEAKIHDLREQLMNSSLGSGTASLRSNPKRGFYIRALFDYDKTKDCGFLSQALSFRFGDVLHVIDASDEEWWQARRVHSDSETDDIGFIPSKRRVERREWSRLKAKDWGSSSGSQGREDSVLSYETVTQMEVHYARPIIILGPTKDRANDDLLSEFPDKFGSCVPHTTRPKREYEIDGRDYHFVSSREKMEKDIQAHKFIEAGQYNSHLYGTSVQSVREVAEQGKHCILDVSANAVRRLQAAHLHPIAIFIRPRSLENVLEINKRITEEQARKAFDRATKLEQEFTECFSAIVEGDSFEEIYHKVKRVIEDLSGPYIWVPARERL

[9] = molecular target: T1, nNOS-CAPON interaction (Mus musculus, UniProt Q9Z0J4); test: Co-immunoprecipitation of nNOS-CAPON in ischemic cortexes; assay type: in vivo; conditions: 1.5 mg kg-1 i.v. 15 min before MCAO
T1 construct: from tissue; host or cells: mouse ischemic cortex
T1 sequence (Q9Z0J4 whole entry): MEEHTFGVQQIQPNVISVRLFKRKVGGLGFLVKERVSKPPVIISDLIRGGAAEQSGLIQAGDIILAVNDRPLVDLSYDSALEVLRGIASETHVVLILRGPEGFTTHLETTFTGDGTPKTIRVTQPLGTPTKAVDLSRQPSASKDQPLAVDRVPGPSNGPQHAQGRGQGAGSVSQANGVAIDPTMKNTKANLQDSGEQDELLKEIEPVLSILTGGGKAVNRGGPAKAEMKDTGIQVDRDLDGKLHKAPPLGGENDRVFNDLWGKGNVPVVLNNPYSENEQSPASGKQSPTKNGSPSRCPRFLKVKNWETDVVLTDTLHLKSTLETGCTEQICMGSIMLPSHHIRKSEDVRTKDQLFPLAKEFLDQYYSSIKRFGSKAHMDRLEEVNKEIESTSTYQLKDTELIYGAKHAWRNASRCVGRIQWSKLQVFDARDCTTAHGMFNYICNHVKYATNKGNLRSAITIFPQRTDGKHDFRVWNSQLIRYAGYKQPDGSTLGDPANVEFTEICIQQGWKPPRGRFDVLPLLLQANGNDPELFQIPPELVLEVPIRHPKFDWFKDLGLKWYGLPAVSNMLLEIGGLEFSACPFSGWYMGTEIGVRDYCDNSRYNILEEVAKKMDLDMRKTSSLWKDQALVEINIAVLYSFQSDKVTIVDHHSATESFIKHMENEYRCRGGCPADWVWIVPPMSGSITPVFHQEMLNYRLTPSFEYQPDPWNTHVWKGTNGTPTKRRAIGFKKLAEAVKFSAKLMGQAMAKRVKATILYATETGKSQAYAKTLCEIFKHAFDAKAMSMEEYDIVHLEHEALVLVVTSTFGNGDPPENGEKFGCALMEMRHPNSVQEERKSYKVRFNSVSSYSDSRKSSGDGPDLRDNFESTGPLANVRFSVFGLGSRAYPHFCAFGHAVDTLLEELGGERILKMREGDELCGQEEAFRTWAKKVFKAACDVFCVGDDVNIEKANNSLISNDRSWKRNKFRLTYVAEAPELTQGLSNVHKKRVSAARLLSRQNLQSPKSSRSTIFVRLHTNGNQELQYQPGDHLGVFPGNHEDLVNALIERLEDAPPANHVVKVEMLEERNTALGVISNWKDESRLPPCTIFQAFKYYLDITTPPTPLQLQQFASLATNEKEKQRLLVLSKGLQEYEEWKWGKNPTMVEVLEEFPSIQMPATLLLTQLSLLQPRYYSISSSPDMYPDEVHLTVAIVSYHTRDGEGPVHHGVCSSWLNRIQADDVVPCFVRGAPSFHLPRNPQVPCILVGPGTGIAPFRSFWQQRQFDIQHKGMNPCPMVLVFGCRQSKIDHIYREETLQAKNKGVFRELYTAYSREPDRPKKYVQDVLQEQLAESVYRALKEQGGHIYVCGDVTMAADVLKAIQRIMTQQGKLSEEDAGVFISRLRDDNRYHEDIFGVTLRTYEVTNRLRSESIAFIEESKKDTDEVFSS
Protocol: (§4) Coimmunoprecipitation. Neurons were washed in PBS twice, and then lysed in 400 μl buffer A (50 mM Tris-HCl [pH 7.4], 150 mM NaCl, 1 mM EDTA-Na, 1% NP-40, 0.02% sodium azide, 0.1% SDS, 0.5% sodium deoxycholate, 1% PMSF, 1‰ aprotinin, 1‰ leupeptin, and 0.5‰ pepstatin A). The lysates were centrifugated at 12,000×g for 15 min at 4° C. The OHSCs or cortex of mice was homogenized in ice-cold lysis buffer A. After lysis for 15 min, samples were centrifuged at 20,000×g for 15 min. The supernatant were preincubated for 1 h at 4° C. with 0.025 ml of protein G-sepharose beads (Sigma-Aldrich) and then centrifuged to remove proteins that adhered nonspecifically to the beads and obtain the target supernatant for following IP experiment. Protein G Sepharose beads were incubated with antibodies (rabbit antibody to nNOS, 1:100, Affinity BoReagents; rabbit antibody to PSD95, 1:100, Cell Signaling Technology; and rabbit antibody to NR2B antibody, 1:200, Chemicon) for 3-4 h. The antibodies-conjugated protein G-sepharose beads and the target supernatant were added for incubation overnight. Immune complexes were isolated by centrifugation, washed 4 times with 0.05 M HEPES buffer, pH 7.1, containing 0.15% Triton X-100, 0.15 M NaCl, and 0.1×10^−3 M sodium orthovanadate, and bound proteins were eluted by heating at 100° C. in loading buffer. Proteins were analyzed by immunoblotting. […]

[10] = tested on: NMDARs EPSCs of CA1 pyramidal neurons; test: Electrophysiological recordings in hippocampal slices; assay type: cell-based; conditions: 1.0 μM, rat hippocampal slices, low-Mg2+ ACSF
Text: Electrophysiological recordings. […] Briefly, 3 weeks old rats were anesthetized with ethyl ether and decapitated, and whole hippocampus was removed from the brain. Coronal brain slices (350 μm thickness) were cut using a vibrantly blade microtome in ice-cold artificial CSF (ACSF) containing the following (in mM) 126 NaCl, 2.5 KCl, 1 MgCl2, 1 CaCl2, 1.25 KH2PO4, 26 NaHCO3, and 20 glucose. ACSF was bubbled continuously with carbogen (95% O2 and 5% CO2) to adjust the pH to 7.4. Fresh slices were incubated in chamber with carbogenated ACSF and recovered at 34° C. for at least 1.5 h before they were transferred to recording chamber. For the recording of EPSCs, the individual slices were transferred to a recording chamber, and CA1 pyramidal neurons were viewed under upright microscopy (Olympus). […] Excitatory postsynaptic responses of CA1 pyramidal neurons were evoked by stimulating the Schaffer fibers through a constant-current pulse delivered by a bipolar tungsten electrode and recorded with Axopatch-200B amplifier (Molecular Devices). […] The baseline was recorded at least 10 min to ensure the stability of the response. Data were collected with pClamp 9.2 software and analyzed using Clampfit 9.2 (Molecular Devices).

[11] = 1.5 mg/kg i.v., 15 and 60 min after dosing; FIG. 8 (Zhou 2010); cited from earlier work
[12] = molecular target: T2, PSD95-SynGAP interaction (Mus musculus, UniProt Q62108); test: Co-immunoprecipitation of PSD95-SynGAP in ischemic cortexes; assay type: in vivo; conditions: 1.5 mg kg-1 i.v. 15 min before MCAO
T2 construct: from tissue; host or cells: mouse ischemic cortex
T2 sequence (Q62108 whole entry): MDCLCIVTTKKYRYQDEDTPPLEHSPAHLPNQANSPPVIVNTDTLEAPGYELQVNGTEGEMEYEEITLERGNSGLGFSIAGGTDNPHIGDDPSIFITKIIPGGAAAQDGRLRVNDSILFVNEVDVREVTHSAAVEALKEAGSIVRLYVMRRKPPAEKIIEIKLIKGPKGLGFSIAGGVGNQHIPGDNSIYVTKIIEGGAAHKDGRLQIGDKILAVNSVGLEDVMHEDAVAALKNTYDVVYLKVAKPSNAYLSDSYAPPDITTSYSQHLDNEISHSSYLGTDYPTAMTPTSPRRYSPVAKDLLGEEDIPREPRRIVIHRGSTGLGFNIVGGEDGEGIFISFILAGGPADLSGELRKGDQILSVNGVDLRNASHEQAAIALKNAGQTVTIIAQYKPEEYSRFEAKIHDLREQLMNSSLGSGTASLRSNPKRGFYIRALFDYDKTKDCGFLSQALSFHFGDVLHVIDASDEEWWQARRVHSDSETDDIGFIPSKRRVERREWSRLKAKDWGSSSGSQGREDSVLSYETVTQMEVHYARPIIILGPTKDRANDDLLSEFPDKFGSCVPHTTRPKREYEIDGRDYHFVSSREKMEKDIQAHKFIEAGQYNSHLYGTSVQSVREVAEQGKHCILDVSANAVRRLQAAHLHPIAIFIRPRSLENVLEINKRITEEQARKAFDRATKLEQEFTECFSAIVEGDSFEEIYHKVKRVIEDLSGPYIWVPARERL
Protocol: as §4

[13] = tested on: NOS (total NOS, nNOS) in homogenates from the cortex of mice; test: NOS activity assay; assay type: biochemical, mouse; conditions: 10 μM, 30 min
Protocol: NOS activity assay. Nitric oxide synthase activities in the hippocampus were measured using a conventional assay. Briefly, the hippocampus was homogenized in ice-cold PBS, pH 7.4, and centrifuged at 10,000 g for 20 min at 4° C. The supernatant was ultracentrifuged at 100,000×g for 15 min at 4° C. using a 300 kDa molecular weight cut-off filter by centrifugation. NOS activity in the filtrates was measured using a commercially available kit (Calbiochem). […] Neuronal NOS activity was computed by subtracting the iNOS activity from the total NOS activity with the inhibited fraction of eNOS. Inducible NOS activity was measured by adding EGTA at 3 mM to chelate free Ca^2+ from the reaction mixture. NOS activities were expressed as unit (U). One U was defined as nanomoles of NO formed in 1 min by 1 mg of protein.

[14] = tested on: nNOS-PSD95 complex; test: Co-immunoprecipitation of nNOS-PSD95 complex in neuronal cultures; assay type: cell-based
Protocol: (§5) Co-immunoprecipitation. Cultured neurons, organotypic hippocampal slice cultures (OHSCs) or the cortices of mice were lysed and centrifuged. The supernatant was preincubated with protein G-Sepharose beads (Sigma-Aldrich) and then centrifuged to obtain the target supernatant. The antibodyconjugated protein G-Sepharose beads were incubated with the target supernatant, centrifuged, washed and heated the beads to elute bound proteins and analyzed proteins by immunoblotting.
(§6) Coimmunoprecipitation. Neurons were washed in PBS twice, and then lysed in 400 μl buffer A (50 mM Tris-HCl [pH 7.4], 150 mM NaCl, 1 mM EDTA-Na, 1% NP-40, 0.02% sodium azide, 0.1% SDS, 0.5% sodium deoxycholate, 1% PMSF, 1‰ aprotinin, 1‰ leupeptin, and 0.5‰ pepstatin A). The lysates were centrifugated at 12,000×g for 15 min at 4° C. […] Proteins were analyzed by immunoblotting.
(§7) Samples were immunoprecipitated and analyzed by western blotting with the indicated antibodies (IP for nNOS, and WB for PSD-95), and analyzed for (a) nNOS-PSD-95 complex amounts in the cortex of mice subjected to 90 min MCAO and 30 min reperfusion (n=3), as shown in FIG. 5A in wild type mice after MCAO, and (b) nNOS-PSD-95 complex amounts in neurons exposed to 50 μM glutamate with 10 μM glycine for 30 min (n=3). […]

[15] = molecular target: T3, nNOS-PSD95 interaction (Mus musculus, UniProt Q9Z0J4); test: Co-immunoprecipitation of nNOS-PSD95 complex in cortex of mice (MCAO/reperfusion); assay type: in vivo
T3 construct: from tissue; host or cells: mouse cortex
T3 sequence (Q9Z0J4 whole entry, the tested form may be a part): as the sequence (Q9Z0J4 whole entry) above
Protocol: as §5, §6, §7

**Q.** With `Oc1c(Cl)cc(Cl)cc1CNc1ccc2[nH]nnc2c1` [IC87201, 2-((1H-benzo[d][1,2,3]triazol-5-ylamino)methyl)-4,6-dichlorophenol] as the compound, how does the “acquisition of conditioned fear” value [1] read?
**A.** identical acquisition of conditioned fear

**Q.** What about the fear extinction [1] of the same compound?
**A.** normal patterns of fear extinction

**Q.** And the “percent time freezing on test day 1” value [1]?
**A.** reduced the percent time freezing on test day 1

**Q.** And the “percent time freezing during acquisition” value [1]?
**A.** Neither IC8701 nor ZL006 altered the percent time freezing

**Q.** What about the “percent time freezing during recall” value ([1]; data not shown) of the same compound?
**A.** Neither IC8701 nor ZL006 altered the percent time freezing

**Q.** And the “conditioned fear response 24 hours later (day 3 fear recall)” value [1]?
**A.** significant attenuation of conditioned fear response

**Q.** What about the “effect on cGMP production induced by a NO donor” value [2] of the same compound?
**A.** no effect

**Q.** What about the “duration of time spent in regions of the open field (inner region versus outer region)” value [3] of the same compound?
**A.** not observed a significant difference

**Q.** And the “number of line crossings” value [3]?
**A.** not observed a significant difference

**Q.** What about the “glutamate receptor induced cell death” value [4] of the same compound?
**A.** disrupt nNOS downstream signaling

**Q.** And the social interaction duration [5]?
**A.** improvement in social interaction duration

**Q.** And the “percent time freezing during extinction” value [6]?
**A.** Neither IC8701 nor ZL006 altered the percent time freezing

**Q.** What about the “attenuation of NMDA-induced increases in cGMP” value [7] of the same compound?
**A.** dose-dependently attenuated NMDA-induced increases in cGMP

**Q.** And the IC50 ([7]; Rattus norvegicus, Hippocampal neuron, n=14-20, FIG. 6, read-out: IC50, attenuation of NMDA-induced increase of cGMP)?
**A.** 2700 nM

**Q.** What about the “disruption of PSD95-cypin protein-protein interaction” value [8] of the same compound?
**A.** does not disrupt

**Q.** Which “co-immunoprecipitation of nNOS-Capon interaction” value [9] does the source give for `O=C(O)c1ccc(NCc2cc(Cl)cc(Cl)c2O)cc1O` [ZL006] here?
**A.** does not inhibit

**Q.** And the “freezing, extinction” value ([1]; 10 mg/kg i.p., after the acquisition day, 1 hour prior to the consolidation day, FIG. 3)?
**A.** improved extinction

**Q.** What about the “freezing, recall” value ([1]; 10 mg/kg i.p., after the acquisition day, 1 hour prior to the consolidation day, data not shown) of the same compound?
**A.** improved recall

**Q.** And the “acquisition of conditioned fear” value [1]?
**A.** identical acquisition of conditioned fear

**Q.** And the fear extinction [1]?
**A.** normal patterns of fear extinction

**Q.** What about the “percent time freezing on test day 1” value [1] of the same compound?
**A.** reduced the percent time freezing on test day 1

**Q.** What about the “percent time freezing during acquisition” value [1] of the same compound?
**A.** Neither IC8701 nor ZL006 altered the percent time freezing

**Q.** What about the “percent time freezing during recall” value ([1]; data not shown) of the same compound?
**A.** Neither IC8701 nor ZL006 altered the percent time freezing

**Q.** What about the “conditioned fear response 24 hours later (day 3 fear recall)” value [1] of the same compound?
**A.** significant attenuation of conditioned fear response

**Q.** What about the “NMDARs EPSCs” value [10] of the same compound?
**A.** does not inhibit NMDARs EPSCs

**Q.** And the “penetration in the CNS (concentrations in serum, CSF and brain tissue)” value [11]?
**A.** significant penetration in the CNS

**Q.** What about the “co-immunoprecipitation of PSD95-SynGAP interaction” value [12] of the same compound?
**A.** does not inhibit

**Q.** What about the “duration of time spent in regions of the open field (inner region versus outer region)” value [3] of the same compound?
**A.** not observed a significant difference

**Q.** And the “number of line crossings” value [3]?
**A.** not observed a significant difference

**Q.** What about the “NOS activity / NOS catalytic activity” value [13] of the same compound?
**A.** does not inhibit NOS activity

**Q.** And the “NMDAR-dependent excitotoxicity (lactate dehydrogenase release) and cerebral ischemia” value ([4]; cultured neurons exposed to 50 μM glutamate with 10 μM glycine for 30 min)?
**A.** prevents NMDAR-dependent excitotoxicity and cerebral ischemia

**Q.** And the “glutamate receptor induced cell death” value [4]?
**A.** disrupt nNOS downstream signaling

**Q.** And the social interaction duration [5]?
**A.** not observed a significant difference

**Q.** What about the “percent time freezing during extinction” value [6] of the same compound?
**A.** Neither IC8701 nor ZL006 altered the percent time freezing

**Q.** And the “co-immunoprecipitation of nNOS-PSD95 complex” value [14]?
**A.** inhibits the in co-immunoprecipitation of nNOS-PSD95 complex

**Q.** What about the “nNOS-PSD95 interaction in the non-ischemic cortex” value ([15]; non-ischemic cortex, n=3, ZL006 vs vehicle) of the same compound?
**A.** did not show a significant effects

**Q.** What about the “ischemic induced increase in nNOS-PSD95 interaction” value ([15]; wild type mice, MCAO and reperfusion) of the same compound?
**A.** blocks the ischemic induced increase in nNOS-PSD95 interaction
